Laboratory results from ChEMBL document CHEMBL1201862, “PubChem BioAssay data set” (2004).
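Five compound concentrations were applied to cells in 96-well plates for 48 hours; endpoints were derived by simple linear interpolation of the resulting dose-response curve. GI50: concentration for 50% inhibition of growth.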 The source made the active and inactive calls. No stated cut-off is given here; in the data, active = GI50 up to about 1.1 µM and inactive = higher.

Columns and labels:
Assay in all cases: NCI-60 cell line screen, 48 h
786-0 = test system: 786-0
A498 = test system: A498
A549 = test system: A549
ACHN = test system: ACHN
CAKI-1 = test system: CAKI-1
CCRF-CEM = test system: CCRF-CEM
COLO 205 = test system: COLO 205
DLD-1 = test system: DLD-1
DMS-114 = test system: DMS-114
DMS-273 = test system: DMS-273
EKVX = test system: EKVX
HCC 2998 = test system: HCC 2998
HCT-116 = test system: HCT-116
HCT-15 = test system: HCT-15
HL-60 = test system: HL-60
HOP-18 = test system: HOP-18
HOP-62 = test system: HOP-62
HOP-92 = test system: HOP-92
HT-29 = test system: HT-29
IGROV-1 = test system: IGROV-1
K562 = test system: K562
KM-20L2 = test system: KM-20L2
KM12 = test system: KM12
LOX IMVI = test system: LOX IMVI
LXFL 529 = test system: LXFL 529
M14 = test system: M14
M19-MEL = test system: M19-MEL
MOLT-4 = test system: MOLT-4
Malme-3M = test system: Malme-3M
NCI-H226 = test system: NCI-H226
NCI-H23 = test system: NCI-H23
NCI-H460 = test system: NCI-H460
NCI-H522 = test system: NCI-H522
OVCAR-3 = test system: OVCAR-3
OVCAR-4 = test system: OVCAR-4
OVCAR-5 = test system: OVCAR-5
OVCAR-8 = test system: OVCAR-8
RPMI-8226 = test system: RPMI-8226
RXF 393 = test system: RXF 393
RXF 631 = test system: RXF 631
SF-268 = test system: SF-268
SF-295 = test system: SF-295
SF-539 = test system: SF-539
SK-MEL-28 = test system: SK-MEL-28
SK-MEL-2 = test system: SK-MEL-2
SK-MEL-5 = test system: SK-MEL-5
SK-OV-3 = test system: SK-OV-3
SN12C = test system: SN12C
SNB-19 = test system: SNB-19
SNB-75 = test system: SNB-75
SNB-78 = test system: SNB-78
SR = test system: SR
SW-620 = test system: SW-620
TK-10 = test system: TK-10
U-251 = test system: U-251
UACC-257 = test system: UACC-257
UACC-62 = test system: UACC-62
UO-31 = test system: UO-31
XF498 = test system: XF498

Measured: GI50

CC(=O)NNc1nc(C)c(C(=O)NNC(=O)C(=O)Nc2ccc(C)cc2[N+](=O)[O-])s1
inactive: 786-0 > 100 µM | A498 > 100 µM | A549 > 100 µM | ACHN > 100 µM | CAKI-1 > 100 µM | CCRF-CEM 46.1 µM | COLO 205 > 100 µM | DLD-1 > 100 µM | DMS-114 > 100 µM | DMS-273 > 100 µM | EKVX > 100 µM | HCC 2998 > 100 µM | HCT-116 > 100 µM | HL-60 > 100 µM | HOP-18 > 100 µM | HOP-62 > 100 µM | HOP-92 > 100 µM | HT-29 > 100 µM | IGROV-1 > 100 µM | K562 > 100 µM | KM-20L2 > 100 µM | KM12 > 100 µM | LOX IMVI 56.4 µM | LXFL 529 > 100 µM | M14 > 100 µM | M19-MEL 60.4 µM | MOLT-4 98.4 µM | Malme-3M > 100 µM | NCI-H226 > 100 µM | NCI-H23 > 100 µM | NCI-H460 > 100 µM | NCI-H522 20.7 µM | OVCAR-3 47.8 µM | OVCAR-4 > 100 µM | OVCAR-5 > 100 µM | OVCAR-8 > 100 µM | RPMI-8226 > 100 µM | RXF 393 > 100 µM | RXF 631 > 100 µM | SF-268 > 100 µM | SF-295 > 100 µM | SF-539 > 100 µM | SK-MEL-28 > 100 µM | SK-MEL-2 > 100 µM | SK-MEL-5 > 100 µM | SK-OV-3 > 100 µM | SN12C > 100 µM | SNB-19 > 100 µM | SNB-75 > 100 µM | SNB-78 > 100 µM | SR 65.2 µM | SW-620 > 100 µM | TK-10 > 100 µM | U-251 > 100 µM | UACC-257 > 100 µM | UACC-62 > 100 µM | UO-31 > 100 µM
> 100 µM: HCT-15

Cc1cc(NS(=O)(=O)c2ccc(NC(=O)c3ccc(Cl)c4c(Nc5ccc(S(N)(=O)=O)cc5)c5ccccc5nc34)cc2)no1
> 100 µM: HCT-15
inactive: 786-0 18.3 µM | A498 23.3 µM | A549 66.5 µM | ACHN 29.1 µM | CAKI-1 21.1 µM | COLO 205 18.7 µM | DLD-1 21.7 µM | DMS-114 20.2 µM | DMS-273 21.5 µM | EKVX 33.1 µM | HCC 2998 18.7 µM | HCT-116 15.2 µM | HL-60 13.3 µM | HOP-18 30.1 µM | HOP-62 21.2 µM | HOP-92 19.7 µM | HT-29 22.2 µM | IGROV-1 21.2 µM | K562 26.9 µM | KM-20L2 24.5 µM | KM12 19.6 µM | LOX IMVI 14.6 µM | LXFL 529 15.9 µM | M14 26.9 µM | M19-MEL 20 µM | MOLT-4 22.5 µM | Malme-3M 15.5 µM | NCI-H226 20.3 µM | NCI-H23 23.4 µM | NCI-H460 25.8 µM | NCI-H522 11 µM | OVCAR-3 20 µM | OVCAR-4 24.3 µM | OVCAR-5 24.5 µM | OVCAR-8 17.9 µM | RXF 393 16.8 µM | RXF 631 21.6 µM | SF-268 12.9 µM | SF-295 25.1 µM | SF-539 17.3 µM | SK-MEL-28 20.3 µM | SK-MEL-5 18.2 µM | SK-OV-3 34.8 µM | SN12C 23.1 µM | SNB-19 14.7 µM | SNB-75 20.3 µM | SNB-78 36.8 µM | SR 20.4 µM | SW-620 17.4 µM | TK-10 27 µM | U-251 11.5 µM | UACC-257 24 µM | UACC-62 11.2 µM | UO-31 23.2 µM | XF498 19.5 µM
